What was measured:
[1] = Compound cytotoxicity, XTT-based colorimetric assay; assay type: cell-based; conditions: human, uninfected MT2 cells, Table 1a, day 4, XTT
Procedure, shortened: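 XTT colorimetric read-out on day 4 gave CC50 values, using MT2 cells left uninfected but otherwise handled as in the antiviral assay.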

[2] = test system: recombinant NL4-3 virus (nef section replaced with Renilla luciferase gene) in MT-2 cells; experiment: HIV cell culture assay (antiviral activity, luciferase readout); assay type: cell-based; conditions: MT-2 cells infected for 4-5 days with recombinant NL4-3 luciferase virus
Procedure, shortened: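 Serially diluted compounds were present throughout a 4-5 day infection of MT-2 cells by recombinant NL4-3 whose nef region partly encodes Renilla luciferase. Antiviral activity was taken from live-cell luciferase signal, with the 50% effective concentration fitted by the exponential median effect equation.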

## COc1ccc2c(=O)n(-c3ccc(Cl)c4c(NS(C)(=O)=O)nn(CC(F)F)c34)c([C@H](Cc3cc(F)cc(F)c3)NC(=O)Cn3nc(C(F)F)c4c3C(F)(F)[C@@H]3C[C@H]43)nc2n1 (mixture of isomers) [Example 54.2, N-[(1S)-1-{3-[4-chloro-1-(2,2-difluoroethyl)-3-methanesulfonamido-1H-indazol-7-yl]-7-methoxy-4-oxo-3H,4H-pyrido[2,3-d]pyrimidin-2-yl}-2-(3,5-difluorophenyl)ethyl]-2-[(2S,4R)-9-(difluoromethyl)-5,5-difluoro-7,8-diazatricyclo[4.3.0.0^2,4]nona-1(6),8-dien-7-yl]acetamide]
[1]
  CC50 at 4 days: > 1000 nM
[2]; Renilla, NL43, Table 1a
  EC50: 0.026 nM

## COc1ccc2nc([C@H](Cc3cc(F)cc(F)c3)NC(=O)Cn3nc(C(F)F)c4c3C(F)(F)[C@@H]3C[C@H]43)n(-c3ccc(Cl)c4c(NS(C)(=O)=O)nn(C)c34)c(=O)c2c1 (single isomer, unassigned) [Example 173]
[1]
  CC50 at 4 days: > 1000 nM
[2]; Table 1a
  EC50: 32 nM

## Cn1nc(NS(C)(=O)=O)c2c(Cl)ccc(-n3c([C@H](Cc4cc(F)cc(F)c4)NC(=O)Cn4nc(C(F)F)c5c4C(F)(F)[C@@H]4C[C@H]54)nc4ccc(OC(F)(F)F)cc4c3=O)c21 (single isomer, unassigned) [Example 140]
[1]
  CC50 at 4 days: > 1000 nM
[2]; Renilla, NL43, Table 1a
  EC50: 0.32 nM

## Cn1nc(NS(C)(=O)=O)c2c(Cl)ccc(-c3nc4ccccc4nc3[C@H](Cc3cc(F)cc(F)c3)NC(=O)Cn3nc(C(F)F)c4c3C(F)(F)[C@@H]3C[C@H]43)c21 [Example 154, N—((S)-1-(3-(4-chloro-1-methyl-3-(methylsulfonamido)-1H-indazol-7-yl)quinoxalin-2-yl)-2-(3,5-difluorophenyl)ethyl)-2-((3bS,4aR)-3-(difluoromethyl)-5,5-difluoro-3b,4,4a,5-tetrahydro-1H-cyclopropa[3,4]cyclopenta[1,2-c]pyrazol-1-yl)acetamide]
[1]
  CC50 at 4 days: > 10000 nM
[2]; Renilla, NL43, Table 1a
  EC50: 0.43 nM

## O=C(Cn1nc(C(F)F)c2c1C(F)(F)[C@@H]1C[C@H]21)N[C@@H](Cc1cc(F)cc(F)c1)c1nc2ncccc2c(=O)n1-c1ccc2ncsc2c1 [Example 36, N-[(1S)-1-[3-(1,3-benzothiazol-6-yl)-4-oxo-3H,4H-pyrido[2,3-d]pyrimidin-2-yl]-2-(3,5-difluorophenyl)ethyl]-2-[(2S,4R)-9-(difluoromethyl)-5,5-difluoro-7,8-diazatricyclo[4.3.0.0^2,4]nona-1(6),8-dien-7-yl]acetamide]
[1]
  CC50 at 4 days: > 1000 nM
[2]; Renilla, NL43, Table 1a
  EC50: 10.4 nM

## Cn1nc(NS(C)(=O)=O)c2c(Cl)ccc(-n3c([C@H](Cc4cc(F)cc(F)c4)NC(=O)Cn4ccc(C5CC5)n4)nc4cccc(C(F)(F)F)c4c3=O)c21 (single isomer, unassigned) [Example 136]
[1]
  CC50 at 4 days: > 1000 nM
[2]; Renilla, NL43, Table 1a
  EC50: 38.9 nM

## CN1CCN(S(=O)(=O)c2ccc(-c3cc4[nH]ncc4nc3[C@H](Cc3cc(F)cc(F)c3)NC(=O)Cn3nc(C(F)F)c4c3C(F)(F)[C@@H]3C[C@H]43)cc2)CC1 [Example 28, 2-((3bS,4aR)-3-(difluoromethyl)-5,5-difluoro-3b,4,4a,5-tetrahydro-1H-cyclopropa[3,4]cyclopenta[1,2-c]pyrazol-1-yl)-N—((S)-2-(3,5-difluorophenyl)-1-(6-(4-((4-methylpiperazin-1-yl)sulfonyl)phenyl)-1H-pyrazolo[4,3-b]pyridin-5-yl)ethyl)acetamide]
[1]
  CC50 at 4 days: > 10000 nM
[2]; Renilla, NL43, Table 1a
  EC50: 19.9 nM

— US10954252B1, “Inhibitors of human immunodeficiency virus replication” (ViiV HEALTHCARE UK (NO.5) LIMITED, priority 2017, dated 2021)
